# Values of other authors in patent US20160052938A1, “SPIRO[3H-INDOLE-3,2'-PYRROLIDIN]-2(1H)-ONE COMPOUNDS AND DERIVATIVES AS MDM2-P53 INHIBITORS” (Boehringer Ingelheim International GmbH, priority 2014, published 2016).
# Tested on: acute lymphoblastic leukemia (ALL) xenograft models with mixed-lineage leukemia (MLL) rearrangement
# Settings: Carol et al. 2013; cited from earlier work
structure (smiles),measurement,value
CCOc1cc(C(C)(C)C)ccc1C1=N[C@@](C)(c2ccc(Cl)cc2)[C@@](C)(c2ccc(Cl)cc2)N1C(=O)N1CCN(CCCS(C)(=O)=O)CC1 [RG-7112],efficacy,particularly efficacious
